# PMC3113527 (Journal of agricultural and food chemistry, 2011)
# Legend:
# [1] = biological target: secreted phospholipase A2 (PLA2) (Apis mellifera, UniProt P00630); test: biochemical; settings: read-out: Inhibition of PLA2
# [2] = biological target: T1, Lipase from porcine pancreas (PL) (Sus scrofa, UniProt P00591); test: Pancreatic lipase inhibition assay in vitro; assay type: biochemical; settings: read-out: Inhibition of PL
# T1 sequence (P00591 1-450): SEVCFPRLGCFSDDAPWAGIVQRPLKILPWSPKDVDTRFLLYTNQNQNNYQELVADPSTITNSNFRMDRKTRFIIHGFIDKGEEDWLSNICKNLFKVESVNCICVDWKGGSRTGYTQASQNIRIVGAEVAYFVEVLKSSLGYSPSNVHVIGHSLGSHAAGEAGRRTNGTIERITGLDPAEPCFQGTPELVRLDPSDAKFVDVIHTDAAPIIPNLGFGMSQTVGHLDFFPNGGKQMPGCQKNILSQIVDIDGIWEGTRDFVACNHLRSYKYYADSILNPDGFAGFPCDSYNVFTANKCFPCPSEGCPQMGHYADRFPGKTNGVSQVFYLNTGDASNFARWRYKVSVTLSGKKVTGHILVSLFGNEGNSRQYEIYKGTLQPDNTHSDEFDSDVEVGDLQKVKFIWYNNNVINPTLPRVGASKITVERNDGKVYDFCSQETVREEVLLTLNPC
# PLA2 = settings: at 2 mM; cited from earlier work
# Chain of secreted phospholipase A2 (PLA2) (P00630 34-167 limits assumed): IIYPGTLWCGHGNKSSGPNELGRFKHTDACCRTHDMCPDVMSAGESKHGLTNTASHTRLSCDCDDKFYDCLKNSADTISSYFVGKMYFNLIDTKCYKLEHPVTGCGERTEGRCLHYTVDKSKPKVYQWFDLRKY
compound,measurement,setting,value
"Oc1cc(O)c2c(c1)O[C@H](c1ccc(O)c(O)c1)[C@H](O)C2 [EC, (−)-epicatechin]",inhibition at 100 µM,[1],4.5%
same,inhibition at 20 µM,[2],15%
O=C(O[C@@H]1Cc2c(O)cc(O)cc2O[C@@H]1c1cc(O)c(O)c(O)c1)c1cc(O)c(O)c(O)c1 [EGCG],Inhibition of PLA2 in vitro,PLA2,64.9%
CCCCCCCCCCC[C@@H](C[C@@H]1OC(=O)[C@H]1CCCCCC)OC(=O)[C@H](CC(C)C)NC=O [Orlistat],inhibition at 10 µM,[2],72%
